Source: patent publication US11129910B2, “Specific conjugation linkers, specific immunoconjugates thereof, methods of making and uses such conjugates thereof” (priority 2016, dated 2021)

Tests used:
[1] = system: NCI-N87, a human gastric carcinoma cell line; assay: In vitro cytotoxicity (MTT) assay; format: cell-based; conditions: NCI-N87 cells, 120 hours incubation, read-out: N87 cell (Ag+) IC50
Procedure: The cell line used in the cytotoxicity assays was NCI-N87, a human gastric carcinoma cell line. The cells were grown in RPMI-1640 with 10% FBS. To run the assay, the cells (180 μl, 6000 cells) were added to each well in a 96-well plate and incubated for 24 hours at 37° C. with 5% CO2. Next, the cells were treated with test compounds (20 μl) at various concentrations in appropriate cell culture medium (total volume, 0.2 mL). The control wells contain cells and the medium but lack the test compounds. The plates were incubated for 120 hours at 37° C. with 5% CO2. MTT (5 mg/ml) was then added to the wells (20 μl) and the plates were incubated for 1.5 hr at 37° C. The medium was carefully removed and DMSO (180 μl) was added afterward. After it was shaken for 15 min, the absorbance was measured at 490 nm and 570 nm with a reference filter of 620 nm. The inhibition % was calculated according to the following equation: inhibition %=[1-(assay-blank)/(control-blank)]×100.

[2] = system: human gastric carcinoma N-87 cell line tumor xenograft; assay: Antitumor activity in vivo, tumor xenograft model; parameters: species or system BALB/c Nude mice
Procedure: The in vivo efficacy of conjugates 196a, 201, 206, 354, 358, 370, 377, 385, and 407 along with T-DM1 were evaluated in a human gastric carcinoma N-87 cell line tumorxenograft models. Five-week-old female BALB/c Nude mice ([…]) were inoculated subcutaneously in the area under the right shoulder with N-87 carcinoma cells (5×10^6 cells/mouse) in 0.1 mL of serum-free medium. The tumors were grown for 8 days to an average size of 130 mm^3. The animals were then randomly divided into […] (6 animals per group). The first group of mice served as the control group and was treated with the phosphate-buffered saline vehicle. The remaining […] were treated with conjugates 196a, 201, 206, 354, 358, 370, 377, 385, 407 and T-DM1 respectively at dose of 6 mg/Kg administered intravenously. Three dimensions of the tumor were measured every 4 days and the tumor volumes were calculated using the formula tumor volume=1/2 (length×width×height). The weight of the animals was also measured at the same time. A mouse was sacrificed when any one of the following criteria was met: (1) loss of body weight of more than 20% from pretreatment weight, (2) tumor volume larger than 1500 mm^3, (3) too sick to reach food and water, or (4) skin necrosis. A mouse was considered to be tumor-free if no tumor was palpable.

For T-DM1, the IC50 [1] was 0.07 nM, the “duration of tumor growth inhibition” value ([2]; 6 mg/Kg intravenously) was 38 days and the “elimination / eradication of the tumors” value ([2]; 6 mg/Kg, i.v., one injection) was “not able to eliminate the tumors”.
